# According to publication PMC5478727, “A Novel Small Molecule GDNF Receptor RET Agonist, BT13, Promotes Neurite Growth from Sensory Neurons in Vitro and Attenuates Experimental Neuropathy in the Rat” (Frontiers in Pharmacology, 2017):
# Columns and labels:
# RET = target: T1, RET (Homo sapiens, UniProt P07949); assay: Luciferase reporter-gene assay (PathDetect Elk-1), RET reporter cells; type: cell-based; details: RET reporter cell line
# T1 construct: full-length human RET (long isoform) in pCR3.1; expressed in transfected cells; host or cells: MG87RET murine fibroblasts
# T1 sequence (P07949 29-1114): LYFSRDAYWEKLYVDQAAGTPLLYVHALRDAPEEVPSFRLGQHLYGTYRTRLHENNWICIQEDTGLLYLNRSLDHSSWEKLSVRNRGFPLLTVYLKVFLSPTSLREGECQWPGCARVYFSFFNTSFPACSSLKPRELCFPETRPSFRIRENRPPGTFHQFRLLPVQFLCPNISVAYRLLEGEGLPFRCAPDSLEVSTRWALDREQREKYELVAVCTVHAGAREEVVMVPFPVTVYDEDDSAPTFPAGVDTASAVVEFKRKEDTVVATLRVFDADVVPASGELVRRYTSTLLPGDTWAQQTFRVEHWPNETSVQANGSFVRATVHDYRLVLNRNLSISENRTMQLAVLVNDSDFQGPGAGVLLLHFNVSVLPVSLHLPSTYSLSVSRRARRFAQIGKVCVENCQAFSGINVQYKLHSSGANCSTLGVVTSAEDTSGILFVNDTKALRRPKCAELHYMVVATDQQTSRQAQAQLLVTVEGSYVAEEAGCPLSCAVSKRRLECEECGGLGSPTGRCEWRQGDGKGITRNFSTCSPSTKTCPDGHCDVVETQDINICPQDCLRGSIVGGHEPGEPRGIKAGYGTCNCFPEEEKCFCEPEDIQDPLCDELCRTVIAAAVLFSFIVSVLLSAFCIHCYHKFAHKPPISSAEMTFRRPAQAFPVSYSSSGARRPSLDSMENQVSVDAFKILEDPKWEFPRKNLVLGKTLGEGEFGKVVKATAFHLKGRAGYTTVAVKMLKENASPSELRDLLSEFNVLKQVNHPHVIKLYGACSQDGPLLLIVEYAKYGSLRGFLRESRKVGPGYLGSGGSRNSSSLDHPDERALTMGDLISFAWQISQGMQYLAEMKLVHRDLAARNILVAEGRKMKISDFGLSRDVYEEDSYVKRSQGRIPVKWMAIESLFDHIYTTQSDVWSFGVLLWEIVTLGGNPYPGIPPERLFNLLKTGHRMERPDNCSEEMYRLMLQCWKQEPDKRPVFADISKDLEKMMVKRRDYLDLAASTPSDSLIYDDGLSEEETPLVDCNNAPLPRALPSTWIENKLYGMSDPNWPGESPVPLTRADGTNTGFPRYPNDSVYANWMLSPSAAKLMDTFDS
# [1] = tested on: Akt and Erk phosphorylation (RET downstream targets); assay: Erk1/2 and Akt phosphorylation assay in MG87RET fibroblasts; type: cell-based, murine; details: 25–50 μM; in the presence and absence of GFRα3 co-receptor
# CYP2C19 = target: T2, CYP2C19 (Homo sapiens, UniProt P33261); assay: CYP inhibition, fluorescent assay; type: biochemical; details: read-out: Inhibition of CYP isoforms (IC50), CYP2C19
# T2 construct: Cyathus Exquirere (contract laboratory)
# T2 sequence (P33261 whole entry, canonical isoform): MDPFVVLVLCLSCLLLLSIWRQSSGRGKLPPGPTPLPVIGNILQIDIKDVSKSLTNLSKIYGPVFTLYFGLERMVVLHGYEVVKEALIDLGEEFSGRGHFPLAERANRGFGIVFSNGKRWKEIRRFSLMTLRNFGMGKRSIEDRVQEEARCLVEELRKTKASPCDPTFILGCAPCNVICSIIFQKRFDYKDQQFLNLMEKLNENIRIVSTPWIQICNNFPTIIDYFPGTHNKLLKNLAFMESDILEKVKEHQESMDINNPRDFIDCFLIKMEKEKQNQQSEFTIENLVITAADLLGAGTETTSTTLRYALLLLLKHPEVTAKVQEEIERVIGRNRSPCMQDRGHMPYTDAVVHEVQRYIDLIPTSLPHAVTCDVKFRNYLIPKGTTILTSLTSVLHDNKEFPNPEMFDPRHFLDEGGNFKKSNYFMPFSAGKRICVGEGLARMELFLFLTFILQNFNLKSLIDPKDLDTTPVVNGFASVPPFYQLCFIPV
# CYP3A4 = target: T3, CYP3A4 (Homo sapiens, UniProt P08684); assay: CYP inhibition, fluorescent assay; type: biochemical; details: read-out: Inhibition of CYP isoforms (IC50), CYP3A4
# T3 construct: Cyathus Exquirere (contract laboratory)
# [2] = tested on: adrenergic receptor alpha 1; assay: CEREP Alpha 1 (non-selective; antagonist radioligand); type: binding; details: BT13 1 μM; Cat. No. 0008; average of duplicate
# histamine receptor H1 = target: T4, histamine receptor H1 (Homo sapiens, UniProt P35367); assay: CEREP H1 (h) (antagonist radioligand); type: binding; details: BT13 1 μM; Cat. No. 0870; average of duplicate; read-out: Percentage of inhibition/potentiation from control
# T4 construct: purchased CEREP (contract assay) 0870
# T4 sequence (P35367 whole entry): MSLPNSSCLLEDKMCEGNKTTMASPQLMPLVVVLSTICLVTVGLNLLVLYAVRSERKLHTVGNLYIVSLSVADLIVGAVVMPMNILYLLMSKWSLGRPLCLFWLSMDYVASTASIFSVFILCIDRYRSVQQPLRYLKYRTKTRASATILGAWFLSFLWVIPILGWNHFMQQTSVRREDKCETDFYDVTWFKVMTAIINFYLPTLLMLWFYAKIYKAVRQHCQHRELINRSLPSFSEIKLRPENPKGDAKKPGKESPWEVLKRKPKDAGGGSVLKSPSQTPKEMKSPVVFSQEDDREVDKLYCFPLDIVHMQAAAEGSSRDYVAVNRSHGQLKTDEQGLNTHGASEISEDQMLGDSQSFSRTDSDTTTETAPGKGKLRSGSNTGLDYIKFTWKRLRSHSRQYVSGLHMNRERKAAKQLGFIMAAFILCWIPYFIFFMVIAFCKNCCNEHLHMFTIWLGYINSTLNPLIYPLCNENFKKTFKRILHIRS
# histamine receptor H2 = histamine receptor H2 (Homo sapiens, UniProt P25021); assay: CEREP H2 (h) (antagonist radioligand); type: binding; details: BT13 1 μM; Cat. No. 1208; average of duplicate; read-out: Percentage of inhibition/potentiation from control
# neurokinin receptor NK1 = neurokinin receptor NK1 (Homo sapiens, UniProt P25103); assay: CEREP NK1 (h) (agonist radioligand); type: binding; details: BT13 1 μM; Cat. No. 0100; average of duplicate; read-out: Percentage of inhibition/potentiation from control
# Chain of neurokinin receptor NK1 (P25103 whole entry): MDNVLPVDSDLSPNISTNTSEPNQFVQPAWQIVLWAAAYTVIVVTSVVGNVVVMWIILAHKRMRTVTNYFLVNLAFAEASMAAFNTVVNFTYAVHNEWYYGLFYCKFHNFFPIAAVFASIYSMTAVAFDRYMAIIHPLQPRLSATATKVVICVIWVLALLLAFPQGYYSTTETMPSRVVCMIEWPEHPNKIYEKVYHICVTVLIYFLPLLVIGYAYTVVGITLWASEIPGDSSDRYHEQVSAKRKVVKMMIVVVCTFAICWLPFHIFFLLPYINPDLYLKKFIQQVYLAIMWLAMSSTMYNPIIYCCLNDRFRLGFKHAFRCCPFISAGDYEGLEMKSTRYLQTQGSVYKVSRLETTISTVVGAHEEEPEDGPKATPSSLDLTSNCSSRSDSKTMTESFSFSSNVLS
# neurokinin receptor NK3 = neurokinin receptor NK3 (Homo sapiens, UniProt P29371); assay: CEREP NK3 (h) (antagonist radioligand); type: binding; details: read-out: Percentage of inhibition/potentiation from control
# Chain of neurokinin receptor NK3 (P29371 whole entry): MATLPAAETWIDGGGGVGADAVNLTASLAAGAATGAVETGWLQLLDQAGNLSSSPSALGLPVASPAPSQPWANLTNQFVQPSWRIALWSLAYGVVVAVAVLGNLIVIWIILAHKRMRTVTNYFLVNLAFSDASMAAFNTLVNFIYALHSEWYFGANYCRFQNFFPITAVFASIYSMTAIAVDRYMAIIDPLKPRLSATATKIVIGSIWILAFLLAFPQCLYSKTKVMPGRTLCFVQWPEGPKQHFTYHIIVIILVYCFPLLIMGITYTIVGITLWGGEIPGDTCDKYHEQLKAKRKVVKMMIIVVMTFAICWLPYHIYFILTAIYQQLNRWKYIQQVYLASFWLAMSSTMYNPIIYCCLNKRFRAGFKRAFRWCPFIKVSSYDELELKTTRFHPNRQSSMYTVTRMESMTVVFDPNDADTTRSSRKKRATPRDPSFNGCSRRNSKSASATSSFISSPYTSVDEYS
# opioid receptor mu (MOP) = opioid receptor mu (MOP) (Homo sapiens, UniProt P35372); assay: CEREP Mu (MOP) (h) (agonist radioligand); type: binding; details: BT13 1 μM; Cat. No. 0118; average of duplicate; read-out: Percentage of inhibition/potentiation from control
# [3] = target: Ca2+ channel (L, diltiazem site) (Rattus norvegicus, UniProt P22002); assay: CEREP Ca2+ channel (L, diltiazem site) (benzothiazepines) (antagonist radioligand); type: binding; details: BT13 1 μM; Cat. No. 0162; average of duplicate; read-out: Percentage of inhibition/potentiation from control
# Chain of Ca2+ channel (L, diltiazem site) (P22002 whole entry): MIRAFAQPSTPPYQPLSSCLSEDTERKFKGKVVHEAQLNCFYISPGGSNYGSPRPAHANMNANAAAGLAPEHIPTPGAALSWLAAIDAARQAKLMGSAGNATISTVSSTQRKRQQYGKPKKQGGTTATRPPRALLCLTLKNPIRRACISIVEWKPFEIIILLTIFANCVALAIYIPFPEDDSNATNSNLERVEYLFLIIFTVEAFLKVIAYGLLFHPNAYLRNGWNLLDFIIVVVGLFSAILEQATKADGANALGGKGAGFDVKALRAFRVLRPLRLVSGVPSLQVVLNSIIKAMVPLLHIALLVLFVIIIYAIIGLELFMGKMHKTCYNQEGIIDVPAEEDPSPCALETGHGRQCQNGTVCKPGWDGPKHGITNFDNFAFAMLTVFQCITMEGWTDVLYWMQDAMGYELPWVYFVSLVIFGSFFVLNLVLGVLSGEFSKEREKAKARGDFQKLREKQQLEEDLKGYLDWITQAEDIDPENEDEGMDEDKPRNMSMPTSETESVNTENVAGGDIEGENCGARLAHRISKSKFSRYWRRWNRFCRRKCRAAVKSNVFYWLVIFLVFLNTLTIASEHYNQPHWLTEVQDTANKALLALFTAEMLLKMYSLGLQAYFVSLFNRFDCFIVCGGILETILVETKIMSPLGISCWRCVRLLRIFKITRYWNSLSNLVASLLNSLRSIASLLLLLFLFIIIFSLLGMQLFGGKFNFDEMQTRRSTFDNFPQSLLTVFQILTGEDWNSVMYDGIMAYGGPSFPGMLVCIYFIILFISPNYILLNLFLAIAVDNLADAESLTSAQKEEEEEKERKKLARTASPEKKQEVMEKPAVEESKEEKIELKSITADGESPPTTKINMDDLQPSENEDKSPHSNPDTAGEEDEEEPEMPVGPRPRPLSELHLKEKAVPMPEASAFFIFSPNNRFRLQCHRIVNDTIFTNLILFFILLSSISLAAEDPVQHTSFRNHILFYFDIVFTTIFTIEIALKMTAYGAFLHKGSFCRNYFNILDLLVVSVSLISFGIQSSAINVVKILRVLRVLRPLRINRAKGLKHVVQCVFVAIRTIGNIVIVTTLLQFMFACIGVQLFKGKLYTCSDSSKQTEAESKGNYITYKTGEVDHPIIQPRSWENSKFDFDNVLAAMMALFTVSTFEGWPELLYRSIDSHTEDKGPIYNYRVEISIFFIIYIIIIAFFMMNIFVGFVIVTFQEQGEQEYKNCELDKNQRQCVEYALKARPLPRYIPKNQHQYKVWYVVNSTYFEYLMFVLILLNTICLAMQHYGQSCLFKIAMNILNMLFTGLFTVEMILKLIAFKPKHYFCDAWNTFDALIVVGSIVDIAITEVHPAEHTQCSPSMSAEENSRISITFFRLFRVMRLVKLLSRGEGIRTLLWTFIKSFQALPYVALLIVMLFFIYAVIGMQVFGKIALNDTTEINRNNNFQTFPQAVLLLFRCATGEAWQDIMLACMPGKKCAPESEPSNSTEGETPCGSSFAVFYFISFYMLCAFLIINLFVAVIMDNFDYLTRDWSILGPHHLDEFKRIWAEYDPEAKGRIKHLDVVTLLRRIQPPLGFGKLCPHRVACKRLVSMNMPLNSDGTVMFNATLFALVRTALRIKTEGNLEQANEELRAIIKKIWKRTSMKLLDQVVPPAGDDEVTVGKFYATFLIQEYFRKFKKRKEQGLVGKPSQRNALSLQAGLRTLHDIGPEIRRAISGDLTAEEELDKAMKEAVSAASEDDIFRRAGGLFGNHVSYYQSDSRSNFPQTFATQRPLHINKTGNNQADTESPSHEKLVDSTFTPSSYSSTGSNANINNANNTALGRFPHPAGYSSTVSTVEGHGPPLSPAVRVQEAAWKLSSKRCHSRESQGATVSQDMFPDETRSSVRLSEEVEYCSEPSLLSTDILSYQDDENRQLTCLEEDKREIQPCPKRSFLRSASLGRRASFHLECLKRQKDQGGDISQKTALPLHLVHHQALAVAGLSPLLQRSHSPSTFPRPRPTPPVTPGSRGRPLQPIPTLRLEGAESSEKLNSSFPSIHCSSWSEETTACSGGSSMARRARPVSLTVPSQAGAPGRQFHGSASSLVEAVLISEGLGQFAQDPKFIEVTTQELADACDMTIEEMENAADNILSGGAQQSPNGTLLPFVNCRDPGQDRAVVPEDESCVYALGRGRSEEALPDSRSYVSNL
# [4] = tested on: COMT (catechol-O-methyl transferase); assay: CEREP COMT (catechol-O-methyl transferase); type: biochemical; details: BT13 1 μM; Cat. No. 0457; average of duplicate
# [5] = target: T5, Protein Tyrosine Phosphatase, PTPRC (CD45) (Homo sapiens, UniProt P08575); assay: CEREP Protein Tyrosine Phosphatase, PTPRC (CD45); type: biochemical; details: BT13 1 μM; Cat. No. 3956; average of duplicate; read-out: Percentage of inhibition/potentiation from control
# T5 construct: purchased CEREP (contract screening, standard company protocols) 3956
# healthy rats = assay: Acute nociception and motor coordination in healthy animals; type: in vivo, rat; details: BT13 25 mg/kg s.c.
smiles,measurement,setting,value
CCN(CC)S(=O)(=O)c1ccc(OC)c(N2CCN(C(=O)c3ccc(F)cc3C(F)(F)F)CC2)c1 [BT13],"efficacy, fold induction of luciferase above baseline",RET,7.4 fold
same,EC50,"RET; 0.1–50 μM, read-out: EC50, luciferase activation",20.7 µM
same,phosphorylation of RET downstream targets Akt and Erk,[1],elicited phosphorylation
same,IC50,CYP2C19,> 100 µM
same,IC50,CYP3A4,3.2 ± 0.42 µM
same,Percentage of inhibition/potentiation from control,[2],2%
same,inhibition at 1 µM,histamine receptor H1,5%
same,inhibition at 1 µM,histamine receptor H2,9%
same,inhibition at 1 µM,neurokinin receptor NK1,-19%
same,inhibition at 1 µM,neurokinin receptor NK3,0%
same,inhibition at 1 µM,opioid receptor mu (MOP),1%
same,inhibition at 1 µM,[3],16%
same,Percentage of inhibition/potentiation from control,[4],−2%
same,inhibition at 1 µM,[5],-3%
same,baseline sensitivity to mechanical stimuli (paw pressure test),healthy rats,no significant effect
same,baseline sensitivity to thermal stimuli (acetone test),healthy rats,no significant effect
same,baseline sensitivity to thermal stimuli (hot plate),healthy rats,no significant effect
same,baseline sensitivity to thermal stimuli (tail flick),healthy rats,no significant effect
same,motor performance (rotarod test),healthy rats,no significant effect
